Laboratory results from US5780441A, “Sphingoglycolipid compounds and therapeutic uses thereof” (Kirin Beer Kabushiki Kaisha, priority 1993, dated 1998).

Experiments:
[1] = tested on: mixed lymphocyte culture reaction (spleen cells of C57BL/6 and BALB/C mice); assay: Mixed lymphocyte culture reaction (MLR); assay type: cell-based, mouse (C57BL/6 stimulator, BALB/C responder); settings: 42 hours; for MLR activating rate (%): 2520 min
Experimental: ii) Mixed lymphocyte culture reaction (MLR) of the compounds of the present invention
Spleen cells were prepared from C57BL/6 mice and treated with 50 μg/ml of mitomycin C for 30 minutes. The treated cells were used as stimulator cells, and the spleen cells of BALB/C mice as responder cells. 2×10^6 cells/ml of the both spleen cells were suspended in 10% FCS RPMI1640 as a culture medium. The above-described cells (50 μl/well) and a sample (10 μl/well) were added into wells of a round-bottomed 96 well plate, and cultured under the condition of 5% CO2 at 37° C. for 42 hours. 0.5 μCi/well of ^3 H-thymidine (^3 H-TdR) was added. After 8 hours, the cells were harvested, and the amount of uptaken ^3 H-TdR was measured by a liquid scintillation counter to calculate the ratio (%) of the uptake of ^3 H-TdR in the sample group to that in the vehicle group as the MLR activating rate.

B16 mouse melanoma cells = assay: Tumor growth inhibition in mice subcutaneously inoculated with B16 mouse melanoma cells; assay type: in vivo, mouse (BDF1 female); settings: 0.1 mg/kg i.v. days 1, 5, 9; maximum during 20 days
Experimental: ii) Anti-tumor effect of the compound according to the present invention on mice subcutaneously inoculated with B16 mouse melanoma cells.
Experiment was performed with BDF1 female mice (6 weeks) purchased from NIPPON SLC K.K., which were divided into groups consisting of 6 animals. […]. The subcutaneous tumor volumes [(length×width×height)/2] were measured on days 8, 12, 16 and 20 after implantation to determine the tumor growth inhibiting rate (TGIR) of each sample. TGIR was calculated from the following formula: […]
wherein C: tumor volume in the control group, and
T: tumor volume in the sample adminitered groups.
In this connection, Compounds 1-6 and 7-9 were tested in the same time, respectively.

mouse splenic lymphocyte = assay: In vitro mouse splenic lymphocyte-proliferation-stimulating effect (3H-TdR uptake); assay type: cell-based, mouse (BDF1 female); settings: 2 days; for Uptake of 3H-TdR (% of control), splenic lymphocytes: 2880 min
Experimental: i) In vitro mouse splenic lymphocyte growth promoting effects of the present compounds
Experiment was performed with BDF1 female mice (6 weeks old) purchased from NIPPON SLC K.K. Spleens were removed from mice, and spleen cells were brayed with slide glasses and hemolized with NH4 Cl. 2×10^6cells/ml of the spleen cells which had been hemolized were suspended in 10% FCS RPMI 1640. The cell suspension (100 μl/well) and a vehicle or sample (10 μl/well) which was prepared so as to have a final level shown in Table 3 were added into wells of a round-bottomed 96 well plate, and cultured under the condition of 5% CO2 at 37° C. for 2 days. 0.5 μCi/well of ^3 H-thymidine (^3 H-TdR) was added. After 6 hours, the cells were harvested, and the amount of ^3 H-TdR uptaken into nucleus was measured by a liquid scintillation counter. The ratio (%) of the uptake of ^3 H-TdR in the sample group to that in the vehicle group was calculated and used as the in vitro mouse splenic lymphocyte-proliferation-stimulating rate.

[2] = tested on: P388 mouse leukemia cells; assay: Life-span-prolonging (anti-tumor) effect on mice subcutaneously inoculated with P388 mouse leukemia cells; assay type: in vivo, mouse (CDF1 female); settings: 0.1 mg/kg i.v. on days 1, 5 and 9; for Survival days ave. ± s. d.: all marked ** (p < 0.01)
Experimental: i) Anti-tumor effect of the compound of the present invention on mice subcutaneously inoculated with P388 mouse leukemia cells.
Experiment was performed with CDF1 female mice (6 weeks) purchased from NIPPON SLC K.K., which were divided into groups consisting of 5 animals. […]. In this connection, lentinan and picibanil were administered intravenously on days 1, 3, 5, 7 and 9 after implantation, and sizofilan was administered subcutaneously on days 1 through 9. Statistical analysis was performed according to the Mann-Whiteney test.

lethally irradiated mice = assay: Radioprotective effect: life-span prolongation of lethally irradiated mice; assay type: in vivo, mouse (BDF1 female); settings: 0.1 mg/kg i.v. days 0, 4, 8, 9 Gy X-ray, groups of 10
Experimental: Life-span-prolonging effects of the present compounds on lethally irradiated mice.
Experiment was performed with BDF1 female mice (6 weeks old) purchased from NIPPON SLC K.K., which were divided into groups consisting of 10 animals. Mice were irradiated generally with 9 Gy of X-ray with an X-ray generating apparatus, Hitachi, MBR-1520R (radiation day: day 0). Samples at a dose of 0.1 mg/kg were administered into tail vein on days 0, 4 and 8 in order to observe the mortality of the animals for 40 days.
In the table, two experiments are separated by the broken line.

mouse bone marrow cells = assay: In vitro mouse bone marrow cell-proliferation-promoting effect (3H-TdR uptake); assay type: cell-based, mouse (BDF1 female); settings: 4 days; for Uptake of 3H-TdR (% of control), bone marrow cells: 5760 min
Experimental: In vitro mouse bone marrow cell-proliferation-promoting effect of the present compound
Experiment was performed with BDF1 female mice (6 weeks old) purchased from NIPPON SLC K.K. Bone marrow cells were removed from the femoral bone of mice by the conventional manner, floated on 10% FCS RPMI 1640, layered over Lympholite M, and centrifuged to give a monocyte fraction. 1×10^6 cells/ml of the monocyte fraction was suspended in 10% FCS RPMI 1640. The cell suspension (100 μl/well) and a vehicle or sample (10 μl/well) which was prepared so as to have a final level shown in Table 2 were added into a wells of round-bottomed 96 well plate, and cultured under the condition of 5% CO2 at 37° C. for 4 days. 0.5 μCi/well of ^3 H-thymidine (^3 H-TdR) was added. After 6 hours, the cells were harvested, and the amount of ^3 H-TdR uptaken into nucleus was measured by a liquid scintillation counter. The ratio of the uptake of ^3 H-TdR in the sample group to that in the vehicle group was calculated and used as the activation rate for promoting in vitro mouse bone marrow cell growth.

Structure (SMILES): CCCCCCCCCCCCCCCCCCCCCC[C@@H](O)C(=O)N[C@@H](CO[C@H]1O[C@H](CO)[C@H](O)[C@H](O[C@H]2O[C@H](CO)[C@H](O)[C@H](O)[C@H]2NC(C)=O)[C@H]1O[C@H]1O[C@H](CO)[C@@H](O)[C@H](O)[C@H]1O)[C@H](O)[C@H](O)CCCCCCCCCCCCC [Compound 2, O-(N-acetyl-2-amino-2-deoxy-α-D-galactopyranosyl)-(1→3)-O-[α-D-glucopyranosyl-(1→2)]-O-α-D-galactopyranosyl-(1→1)-(2S,3S,4R)-2-amino-N-[(R)-2-hydroxytetracosanoyl]-1,3,4-heptadecanetriol]
- activity at 1 µg/mL ([1]; Mus musculus, Lymphocyte, 1 × 10^0 μg/ml, read-out: MLR activating rate (%)): 213%
- activity at 0.1 µg/mL ([1]; Mus musculus, Lymphocyte, 1 × 10^-1 μg/ml, read-out: MLR activating rate (%)): 158%
- Maximum tumor growth inhibiting rate, TGIR (%) (B16 mouse melanoma cells): 82.6%
- activity at 1 µg/mL (mouse splenic lymphocyte; Mus musculus, Splenic lymphocyte, 48 h, 10^0 μg/ml, read-out: Uptake of 3H-TdR (% of control), splenic lymphocytes): 890%
- activity at 0.1 µg/mL (mouse splenic lymphocyte; Mus musculus, Splenic lymphocyte, 48 h, 10^-1 μg/ml, read-out: Uptake of 3H-TdR (% of control), splenic lymphocytes): 735%
- activity at 0.01 µg/mL (mouse splenic lymphocyte; Mus musculus, Splenic lymphocyte, 48 h, 10^-2 μg/ml, read-out: Uptake of 3H-TdR (% of control), splenic lymphocytes): 508%
- activity at 0.001 µg/mL (mouse splenic lymphocyte; Mus musculus, Splenic lymphocyte, 48 h, 10^-3 μg/ml, read-out: Uptake of 3H-TdR (% of control), splenic lymphocytes): 270%
- Survival days ave. ± s. d. [2]: 15.8 ± 0.5 days
- response vs control in vivo at 0.1 mg/kg ([2]; Mus musculus, P388, iv, survival vs vehicle, read-out: T/C (%)): 123%
- Number of surviving mice (lethally irradiated mice; day 10): 10 mice
- Number of surviving mice (lethally irradiated mice; day 15): 10 mice
- Number of surviving mice (lethally irradiated mice; day 20): 10 mice
- Number of surviving mice (lethally irradiated mice; day 25): 9 mice
- Number of surviving mice (lethally irradiated mice; day 30): 9 mice
- Number of surviving mice (lethally irradiated mice; day 35): 9 mice
- Number of surviving mice (lethally irradiated mice; day 40): 9 mice
- activity at 0.1 µg/mL (mouse bone marrow cells; Mus musculus, Bone marrow cell, 96 h, 10^-1 μg/ml, read-out: Uptake of 3H-TdR (% of control), bone marrow cells): 268%
- activity at 0.01 µg/mL (mouse bone marrow cells; Mus musculus, Bone marrow cell, 96 h, 10^-2 μg/ml, read-out: Uptake of 3H-TdR (% of control), bone marrow cells): 276%

Structure (SMILES): CCCCCCCCCCCCCCCCCCCCCC[C@@H](O)C(=O)N[C@@H](CO[C@H]1O[C@H](CO)[C@H](O)[C@H](O[C@H]2O[C@H](CO)[C@H](O)[C@H](O)[C@H]2NC(C)=O)[C@H]1O[C@H]1O[C@H](CO)[C@@H](O)[C@H](O)[C@H]1O)[C@H](O)[C@H](O)CCCCCCCCCCCC(C)C [Compound 3, O-(N-acetyl-2-amino-2-deoxy-α-D-galactopyranosyl)-(1→3)-O-[α-D-glucopyranosyl-(1→2)]-O-α-D-galactopyranosyl-(1→1)-(2S,3S,4R)-2-amino-N-[(R)-2-hydroxytetracosanoyl]-16-methyl-1,3,4-heptadecanetriol]
- MLR activating rate (%) ([1]; 1 × 10^0 μg/ml): 210%
- MLR activating rate (%) ([1]; 1 × 10^-1 μg/ml): 138%
- Maximum tumor growth inhibiting rate, TGIR (%) (B16 mouse melanoma cells): 66.8%
- Uptake of 3H-TdR (% of control), splenic lymphocytes (mouse splenic lymphocyte; 10^0 μg/ml): 815 % of control
- Uptake of 3H-TdR (% of control), splenic lymphocytes (mouse splenic lymphocyte; 10^-1 μg/ml): 704 % of control
- Uptake of 3H-TdR (% of control), splenic lymphocytes (mouse splenic lymphocyte; 10^-2 μg/ml): 397 % of control
- Uptake of 3H-TdR (% of control), splenic lymphocytes (mouse splenic lymphocyte; 10^-3 μg/ml): 258 % of control
- Survival days ave. ± s. d. [2]: 15.0 ± 0 days
- T/C (%) ([2]; survival vs vehicle): 117%
- Number of surviving mice (lethally irradiated mice; day 10): 10 mice
- Number of surviving mice (lethally irradiated mice; day 15, 0.1 mg/kg): 6 mice
- Number of surviving mice (lethally irradiated mice; day 20, 0.1 mg/kg): 5 mice
- Number of surviving mice (lethally irradiated mice; day 25, 0.1 mg/kg): 5 mice
- Number of surviving mice (lethally irradiated mice; day 30, 0.1 mg/kg): 5 mice
- Number of surviving mice (lethally irradiated mice; day 35, 0.1 mg/kg): 5 mice
- Number of surviving mice (lethally irradiated mice; day 40, 0.1 mg/kg): 5 mice
- Uptake of 3H-TdR (% of control), bone marrow cells (mouse bone marrow cells; 10^-1 μg/ml): 314 % of control
- Uptake of 3H-TdR (% of control), bone marrow cells (mouse bone marrow cells; 10^-2 μg/ml): 138 % of control
